Calls of active or inactive are those of the source. Cut-off read from the data, not from the text of the source: actives have a measured IC50 and inactives only a lower limit.
target: Envelope glycoprotein gp160 (Human immunodeficiency virus 1, UniProt Q6QLK5); assay: cell-free HIV fusion peptide-binding blockers – biochemical, uHTS, fluorescence dequenching, […] (AID 1986)
Sequence (Q6QLK5 whole entry, the tested form may be a part): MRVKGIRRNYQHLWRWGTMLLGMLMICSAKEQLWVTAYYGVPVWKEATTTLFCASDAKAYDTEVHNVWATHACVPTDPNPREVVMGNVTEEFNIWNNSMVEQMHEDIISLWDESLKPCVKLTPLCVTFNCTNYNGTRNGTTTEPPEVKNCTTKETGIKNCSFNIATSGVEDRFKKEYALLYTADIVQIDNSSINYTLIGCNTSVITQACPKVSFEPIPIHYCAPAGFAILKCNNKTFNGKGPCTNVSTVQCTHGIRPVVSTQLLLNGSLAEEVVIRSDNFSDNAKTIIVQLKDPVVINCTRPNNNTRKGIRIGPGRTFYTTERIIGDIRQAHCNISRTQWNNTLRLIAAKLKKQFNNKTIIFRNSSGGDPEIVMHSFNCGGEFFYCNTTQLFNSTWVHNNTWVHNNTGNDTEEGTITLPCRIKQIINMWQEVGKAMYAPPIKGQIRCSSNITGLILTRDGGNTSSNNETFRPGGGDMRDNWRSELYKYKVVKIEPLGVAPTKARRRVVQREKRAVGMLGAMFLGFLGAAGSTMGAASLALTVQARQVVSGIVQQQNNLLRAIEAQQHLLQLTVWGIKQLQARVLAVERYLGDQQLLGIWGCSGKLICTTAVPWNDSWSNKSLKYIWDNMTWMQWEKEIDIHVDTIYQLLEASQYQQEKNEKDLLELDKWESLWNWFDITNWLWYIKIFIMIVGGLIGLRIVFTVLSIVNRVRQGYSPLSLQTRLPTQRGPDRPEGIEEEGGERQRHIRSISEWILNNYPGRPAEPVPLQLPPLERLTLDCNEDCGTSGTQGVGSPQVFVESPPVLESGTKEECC

SMILES	IC50
O=C(CCN1C(=O)/C(=C\C=C\c2ccccc2)SC1=S)Nc1ccccc1C(=O)O	20.2 µM (active)
COc1cc(/C=C2/SC(=S)NC2=O)ccc1OS(=O)(=O)c1ccc(C)cc1	16.5 µM (active)
O=C(O)c1cc(-c2ccc(-c3c(-c4ccc5c(c4)OCO5)noc3-c3ccsc3)cc2)nc2ccccc12	52.2 µM (active)
O=C(Nc1cc(S(=O)(=O)N2CCCCC2)ccc1Cl)c1ccccc1NS(=O)(=O)c1ccc(F)cc1	13.4 µM (active)
O=C(O)COc1ccccc1/C=N/Nc1ccc(S(=O)(=O)Nc2ccc(Cl)cc2)cc1[N+](=O)[O-]	19.6 µM (active)
